{"source": "PubChem BioAssay AID651979", "about": "(The Scripps Research Institute Molecular Screening Center, 2013)", "assay_in_all_cases": "PubChem AID 651979", "key": {"[1]": {"biological_target": "Protein phosphatase methylesterase 1 (Homo sapiens) (UniProt Q9Y570)", "sequence (Q9Y570 whole entry, looked up)": "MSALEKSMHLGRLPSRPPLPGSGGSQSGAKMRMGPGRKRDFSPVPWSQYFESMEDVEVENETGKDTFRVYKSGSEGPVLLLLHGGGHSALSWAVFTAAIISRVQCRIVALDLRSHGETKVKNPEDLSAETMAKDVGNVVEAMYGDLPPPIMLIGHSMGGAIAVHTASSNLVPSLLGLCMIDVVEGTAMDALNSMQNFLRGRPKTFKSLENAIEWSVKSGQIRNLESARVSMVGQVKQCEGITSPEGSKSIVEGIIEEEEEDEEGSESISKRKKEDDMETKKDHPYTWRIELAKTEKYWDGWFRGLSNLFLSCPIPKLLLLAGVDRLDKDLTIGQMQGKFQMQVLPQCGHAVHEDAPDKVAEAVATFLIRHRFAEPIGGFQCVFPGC", "settings": "HEK293T SILAC ABPP, NHU5 probe, LC-MS/MS ratio; PPME1; at 5 µM; active compounds read low"}, "[2]": {"biological_target": "Dipeptidyl peptidase 9 (Homo sapiens) (UniProt Q86TI2)", "sequence (Q86TI2 whole entry, looked up)": "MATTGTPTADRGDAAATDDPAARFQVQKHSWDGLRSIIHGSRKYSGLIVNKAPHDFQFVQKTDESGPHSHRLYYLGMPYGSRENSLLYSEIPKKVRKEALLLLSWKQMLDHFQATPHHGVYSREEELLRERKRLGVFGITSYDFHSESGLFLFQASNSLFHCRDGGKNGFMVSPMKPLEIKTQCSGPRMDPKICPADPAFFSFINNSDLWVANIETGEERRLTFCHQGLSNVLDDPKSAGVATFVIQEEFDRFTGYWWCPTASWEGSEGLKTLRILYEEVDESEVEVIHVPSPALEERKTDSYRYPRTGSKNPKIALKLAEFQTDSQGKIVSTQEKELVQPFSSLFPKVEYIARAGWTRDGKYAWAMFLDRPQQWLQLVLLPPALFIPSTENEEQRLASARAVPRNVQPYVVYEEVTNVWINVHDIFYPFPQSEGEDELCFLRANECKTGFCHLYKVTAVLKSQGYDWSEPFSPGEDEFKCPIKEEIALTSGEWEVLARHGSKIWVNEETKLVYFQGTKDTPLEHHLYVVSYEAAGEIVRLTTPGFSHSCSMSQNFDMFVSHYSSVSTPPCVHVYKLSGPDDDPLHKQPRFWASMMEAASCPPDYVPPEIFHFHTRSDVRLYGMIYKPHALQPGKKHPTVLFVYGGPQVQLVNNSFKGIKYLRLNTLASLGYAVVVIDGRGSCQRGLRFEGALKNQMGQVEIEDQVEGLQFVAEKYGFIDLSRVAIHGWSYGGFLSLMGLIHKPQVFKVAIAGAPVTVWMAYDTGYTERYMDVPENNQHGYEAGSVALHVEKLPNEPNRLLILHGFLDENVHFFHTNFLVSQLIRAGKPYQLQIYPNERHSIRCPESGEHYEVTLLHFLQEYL", "settings": "HEK293T SILAC ABPP, NHU5 probe, LC-MS/MS ratio; DPP9; at 5 µM; active compounds read low"}, "ESD": {"system": "ESD", "settings": "HEK293T SILAC ABPP, NHU5 probe, LC-MS/MS ratio, at 5 µM, active compounds read low"}, "TPP2": {"system": "TPP2", "settings": "HEK293T SILAC ABPP, NHU5 probe, LC-MS/MS ratio, at 5 µM, active compounds read low"}, "[3]": {"biological_target": "Fatty acid synthase (Homo sapiens) (UniProt P49327)", "sequence (P49327 whole entry, looked up)": "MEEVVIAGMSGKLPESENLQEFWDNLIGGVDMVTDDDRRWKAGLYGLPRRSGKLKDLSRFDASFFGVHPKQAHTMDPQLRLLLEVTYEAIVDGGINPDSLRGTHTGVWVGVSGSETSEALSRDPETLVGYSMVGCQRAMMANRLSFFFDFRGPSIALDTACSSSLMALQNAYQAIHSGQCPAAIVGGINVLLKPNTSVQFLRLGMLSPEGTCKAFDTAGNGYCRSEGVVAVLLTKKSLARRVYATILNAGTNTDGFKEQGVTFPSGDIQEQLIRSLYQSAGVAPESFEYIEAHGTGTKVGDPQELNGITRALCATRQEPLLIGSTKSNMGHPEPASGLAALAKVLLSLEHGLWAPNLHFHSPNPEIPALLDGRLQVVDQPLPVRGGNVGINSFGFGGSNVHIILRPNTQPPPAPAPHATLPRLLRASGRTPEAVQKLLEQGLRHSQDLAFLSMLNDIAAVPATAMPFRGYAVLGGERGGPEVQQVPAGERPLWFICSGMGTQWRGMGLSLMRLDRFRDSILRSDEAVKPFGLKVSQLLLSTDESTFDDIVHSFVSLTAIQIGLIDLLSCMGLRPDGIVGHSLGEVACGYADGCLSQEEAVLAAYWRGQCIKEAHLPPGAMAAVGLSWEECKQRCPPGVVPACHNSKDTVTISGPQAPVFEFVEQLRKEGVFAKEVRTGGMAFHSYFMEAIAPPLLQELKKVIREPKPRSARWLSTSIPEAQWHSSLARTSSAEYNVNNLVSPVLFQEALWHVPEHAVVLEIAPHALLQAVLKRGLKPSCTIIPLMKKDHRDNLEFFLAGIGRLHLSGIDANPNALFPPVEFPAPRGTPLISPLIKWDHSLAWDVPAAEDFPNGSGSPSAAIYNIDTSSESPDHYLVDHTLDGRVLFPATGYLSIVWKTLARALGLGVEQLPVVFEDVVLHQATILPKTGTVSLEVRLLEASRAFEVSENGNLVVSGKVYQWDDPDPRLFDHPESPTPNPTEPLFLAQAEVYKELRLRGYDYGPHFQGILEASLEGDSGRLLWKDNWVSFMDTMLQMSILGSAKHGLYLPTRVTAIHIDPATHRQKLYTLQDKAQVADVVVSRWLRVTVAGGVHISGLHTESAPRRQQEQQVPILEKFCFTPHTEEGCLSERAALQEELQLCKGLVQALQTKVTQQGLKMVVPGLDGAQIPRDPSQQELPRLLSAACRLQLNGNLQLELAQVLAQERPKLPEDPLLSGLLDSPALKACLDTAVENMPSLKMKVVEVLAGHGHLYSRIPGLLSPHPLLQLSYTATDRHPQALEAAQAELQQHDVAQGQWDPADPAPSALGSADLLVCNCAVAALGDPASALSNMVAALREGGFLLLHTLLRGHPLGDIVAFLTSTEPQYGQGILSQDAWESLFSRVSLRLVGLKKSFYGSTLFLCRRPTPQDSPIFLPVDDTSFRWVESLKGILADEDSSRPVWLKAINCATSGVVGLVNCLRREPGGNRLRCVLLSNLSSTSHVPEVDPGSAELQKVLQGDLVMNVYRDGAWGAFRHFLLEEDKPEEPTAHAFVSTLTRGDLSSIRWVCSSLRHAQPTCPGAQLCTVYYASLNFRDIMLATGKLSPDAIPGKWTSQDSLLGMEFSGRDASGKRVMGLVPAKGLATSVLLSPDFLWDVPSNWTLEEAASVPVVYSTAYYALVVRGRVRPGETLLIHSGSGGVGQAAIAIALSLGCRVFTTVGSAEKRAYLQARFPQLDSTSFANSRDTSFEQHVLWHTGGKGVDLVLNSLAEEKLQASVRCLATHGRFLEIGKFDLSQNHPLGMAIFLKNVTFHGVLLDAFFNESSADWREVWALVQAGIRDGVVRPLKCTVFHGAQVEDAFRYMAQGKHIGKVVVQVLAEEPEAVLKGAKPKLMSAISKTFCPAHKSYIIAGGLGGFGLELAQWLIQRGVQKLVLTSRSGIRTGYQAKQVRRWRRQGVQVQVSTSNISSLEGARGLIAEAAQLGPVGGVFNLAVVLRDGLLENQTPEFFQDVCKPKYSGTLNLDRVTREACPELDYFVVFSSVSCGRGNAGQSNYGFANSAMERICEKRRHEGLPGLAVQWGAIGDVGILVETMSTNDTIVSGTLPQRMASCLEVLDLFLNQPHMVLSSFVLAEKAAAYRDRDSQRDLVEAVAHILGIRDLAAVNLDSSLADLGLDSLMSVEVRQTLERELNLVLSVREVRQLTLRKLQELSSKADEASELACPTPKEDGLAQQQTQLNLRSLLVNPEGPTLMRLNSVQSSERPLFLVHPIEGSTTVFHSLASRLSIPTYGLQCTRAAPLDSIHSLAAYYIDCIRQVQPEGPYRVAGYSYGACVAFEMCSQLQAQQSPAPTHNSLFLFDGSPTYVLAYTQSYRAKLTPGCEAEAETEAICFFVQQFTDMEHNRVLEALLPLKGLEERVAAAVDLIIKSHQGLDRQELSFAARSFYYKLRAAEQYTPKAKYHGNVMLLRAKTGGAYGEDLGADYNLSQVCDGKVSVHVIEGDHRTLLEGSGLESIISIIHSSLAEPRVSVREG", "settings": "HEK293T SILAC ABPP, NHU5 probe, LC-MS/MS ratio; FASN; at 5 µM; active compounds read low"}, "DDHD1": {"system": "DDHD1", "settings": "HEK293T SILAC ABPP, NHU5 probe, LC-MS/MS ratio, at 5 µM, active compounds read low"}, "CTSA": {"system": "CTSA", "settings": "HEK293T SILAC ABPP, NHU5 probe, LC-MS/MS ratio, at 5 µM, active compounds read low"}, "[4]": {"biological_target": "Acyl-protein thioesterase 1 (Homo sapiens) (UniProt O75608)", "sequence (O75608 whole entry, looked up)": "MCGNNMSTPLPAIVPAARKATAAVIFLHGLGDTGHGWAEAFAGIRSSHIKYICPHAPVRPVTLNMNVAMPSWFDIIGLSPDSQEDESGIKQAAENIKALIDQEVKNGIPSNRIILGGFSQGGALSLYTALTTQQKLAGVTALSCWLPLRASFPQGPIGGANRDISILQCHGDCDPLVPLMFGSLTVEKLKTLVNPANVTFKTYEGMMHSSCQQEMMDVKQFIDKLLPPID", "settings": "HEK293T SILAC ABPP, NHU5 probe, LC-MS/MS ratio; LYPLA1; at 5 µM; active compounds read low"}, "[5]": {"biological_target": "Acyl-protein thioesterase 2 (Homo sapiens) (UniProt O95372)", "sequence (O95372 whole entry, looked up)": "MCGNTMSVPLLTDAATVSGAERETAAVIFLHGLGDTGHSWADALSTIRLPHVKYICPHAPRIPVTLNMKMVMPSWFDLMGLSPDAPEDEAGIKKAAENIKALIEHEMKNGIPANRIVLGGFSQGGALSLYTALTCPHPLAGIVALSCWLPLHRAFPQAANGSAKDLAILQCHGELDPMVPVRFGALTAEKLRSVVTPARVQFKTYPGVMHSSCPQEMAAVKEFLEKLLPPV", "settings": "HEK293T SILAC ABPP, NHU5 probe, LC-MS/MS ratio; LYPLA2; at 5 µM; active compounds read low"}, "[6]": {"biological_target": "Acylamino-acid-releasing enzyme (Homo sapiens) (UniProt P13798)", "sequence (P13798 whole entry, looked up)": "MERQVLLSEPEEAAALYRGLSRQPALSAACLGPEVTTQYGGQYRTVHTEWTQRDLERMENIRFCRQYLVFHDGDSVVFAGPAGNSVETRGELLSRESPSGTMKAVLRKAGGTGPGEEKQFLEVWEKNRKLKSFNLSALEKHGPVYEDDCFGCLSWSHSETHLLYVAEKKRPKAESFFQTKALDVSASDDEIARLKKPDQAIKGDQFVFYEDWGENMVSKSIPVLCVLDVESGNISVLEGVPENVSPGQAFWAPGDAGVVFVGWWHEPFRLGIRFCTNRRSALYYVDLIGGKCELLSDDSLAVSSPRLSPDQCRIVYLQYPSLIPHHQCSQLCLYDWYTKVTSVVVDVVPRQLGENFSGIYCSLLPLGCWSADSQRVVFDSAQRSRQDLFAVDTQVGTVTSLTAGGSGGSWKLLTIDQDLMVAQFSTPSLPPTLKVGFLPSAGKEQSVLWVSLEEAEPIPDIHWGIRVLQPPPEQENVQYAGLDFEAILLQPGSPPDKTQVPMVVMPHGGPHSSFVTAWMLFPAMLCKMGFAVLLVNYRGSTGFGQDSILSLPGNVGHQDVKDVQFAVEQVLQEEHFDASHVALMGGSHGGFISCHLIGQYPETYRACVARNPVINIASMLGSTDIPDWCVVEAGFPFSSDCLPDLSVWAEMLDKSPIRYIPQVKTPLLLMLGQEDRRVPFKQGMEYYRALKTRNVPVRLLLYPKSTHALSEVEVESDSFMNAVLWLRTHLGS", "settings": "HEK293T SILAC ABPP, NHU5 probe, LC-MS/MS ratio; APEH; at 5 µM; active compounds read low"}, "PNPLA8": {"system": "PNPLA8", "settings": "HEK293T SILAC ABPP, NHU5 probe, LC-MS/MS ratio, at 5 µM, active compounds read low"}, "PLA2G4A": {"system": "PLA2G4A", "settings": "HEK293T SILAC ABPP, NHU5 probe, LC-MS/MS ratio, at 5 µM, active compounds read low"}, "PNPLA6": {"system": "PNPLA6", "settings": "HEK293T SILAC ABPP, NHU5 probe, LC-MS/MS ratio, at 5 µM, active compounds read low"}, "ABHD12": {"system": "ABHD12", "settings": "HEK293T SILAC ABPP, NHU5 probe, LC-MS/MS ratio, at 5 µM, active compounds read low"}, "ABHD6": {"system": "ABHD6", "settings": "HEK293T SILAC ABPP, NHU5 probe, LC-MS/MS ratio, at 5 µM, active compounds read low"}, "PREP": {"system": "PREP", "settings": "HEK293T SILAC ABPP, NHU5 probe, LC-MS/MS ratio, at 5 µM, active compounds read low"}, "LYPLAL1": {"system": "LYPLAL1", "settings": "HEK293T SILAC ABPP, NHU5 probe, LC-MS/MS ratio, at 5 µM, active compounds read low"}, "ABHD10": {"system": "ABHD10", "settings": "HEK293T SILAC ABPP, NHU5 probe, LC-MS/MS ratio, at 5 µM, active compounds read low"}}, "note": "Active and inactive are the calls of the source. How the calls were made is not given here.", "data": [{"smiles": "O=C(CN1CCN(C(=O)c2ccco2)CC1)Nc1cc(C(F)(F)F)ccc1Cl", "values": [{"measurement": "SILAC ratio (compound/DMSO)", "setting": "[1]", "result": "1.08 (inactive)"}, {"measurement": "SILAC ratio (compound/DMSO)", "setting": "[2]", "result": "1.25 (inactive)"}, {"measurement": "SILAC ratio (compound/DMSO)", "setting": "ESD", "result": "1.08 (inactive)"}, {"measurement": "SILAC ratio (compound/DMSO)", "setting": "TPP2", "result": "1.1 (inactive)"}, {"measurement": "SILAC ratio (compound/DMSO)", "setting": "[3]", "result": "1.14 (inactive)"}, {"measurement": "SILAC ratio (compound/DMSO)", "setting": "DDHD1", "result": "1.06 (inactive)"}, {"measurement": "SILAC ratio (compound/DMSO)", "setting": "CTSA", "result": "1.17 (inactive)"}, {"measurement": "SILAC ratio (compound/DMSO)", "setting": "[4]", "result": 0.21}, {"measurement": "SILAC ratio (compound/DMSO)", "setting": "[5]", "result": "1.1 (inactive)"}, {"measurement": "SILAC ratio (compound/DMSO)", "setting": "[6]", "result": "1.22 (inactive)"}, {"measurement": "SILAC ratio (compound/DMSO)", "setting": "PNPLA8", "result": "0.97 (inactive)"}, {"measurement": "SILAC ratio (compound/DMSO)", "setting": "PLA2G4A", "result": "1.43 (inactive)"}, {"measurement": "SILAC ratio (compound/DMSO)", "setting": "PNPLA6", "result": "1.2 (inactive)"}, {"measurement": "SILAC ratio (compound/DMSO)", "setting": "ABHD12", "result": "1.43 (inactive)"}, {"measurement": "SILAC ratio (compound/DMSO)", "setting": "ABHD6", "result": "1.25 (inactive)"}, {"measurement": "SILAC ratio (compound/DMSO)", "setting": "PREP", "result": "1.1 (inactive)"}, {"measurement": "SILAC ratio (compound/DMSO)", "setting": "LYPLAL1", "result": "1.33 (inactive)"}, {"measurement": "SILAC ratio (compound/DMSO)", "setting": "ABHD10", "result": "1.1 (inactive)"}]}]}
